Results published in US5446129A, “Peptide or its salt for autoimmune hyperthyroidism containing it” (Ishihara Sangyo Kaisha Ltd., priority 1990, dated 1995).
No end group written: not given here.

System: production of cAMP under stimulation by TSAb
Assay: Test Example 2: cAMP produced under stimulation by TSAb in FRTL5 cells (96-well)
Type: cell-based, rat
Settings: TSAb positive IgG
Experimental: Using rat established thyroid cell line FRTL5, the influence of the peptide over the production of cAMP under stimulation by TSAb, was examined in accordance with the method of S. Kosugi et al. (Endocrinology, Vol. 125, No. 1, p 410 (1989)). The method will be described as follows.
Preincubated FRTL5 cells (1.5×10^5 cells/ml) were transferred to a multiplate having 96 wells in an amount of 100 μl per well and incubated in a CO2 incubator for 6 days while changing the medium (having TSH excluded). Then, the medium was removed and the cells were rinsed and subjected to the test. 40 μl of a solution of IgG from TSAb positive serum and 10 μl of a solution containing 0, 15 or 30 μg of the desired peptide were reacted in a test tube at 4° C. for 20 hours. To this reaction solution, 5 μl of a 0.5 mM solution of 3-isobutyl-1-methylxanthine was added, and 50 μl of this reaction solution was added to the previously prepared FRTL5 cells, followed by incubation at 37° C. for two hours.
On the other hand, as control, a test was conducted in the same manner using a normal serum.
With respect to each sample, the quantitative analysis of cAMP produced under stimulation by TSAb was conducted by means of a commercially available cAMP-radioimmunoassay kit (1-VQ12, manufactured by Eiken Kagaku Corporation).

EQEDEIIGFG [Peptide No. 8]
Inhibition rate (15 μg/well peptide): 54%
cAMP (15 μg/well peptide): 3.2 nM
Inhibition rate (30 μg/well peptide): 76%
cAMP (30 μg/well peptide): 1.8 nM
